target: T1, Epidermal growth factor receptor (Homo sapiens, UniProt P00533)
T1 sequence (P00533 whole entry): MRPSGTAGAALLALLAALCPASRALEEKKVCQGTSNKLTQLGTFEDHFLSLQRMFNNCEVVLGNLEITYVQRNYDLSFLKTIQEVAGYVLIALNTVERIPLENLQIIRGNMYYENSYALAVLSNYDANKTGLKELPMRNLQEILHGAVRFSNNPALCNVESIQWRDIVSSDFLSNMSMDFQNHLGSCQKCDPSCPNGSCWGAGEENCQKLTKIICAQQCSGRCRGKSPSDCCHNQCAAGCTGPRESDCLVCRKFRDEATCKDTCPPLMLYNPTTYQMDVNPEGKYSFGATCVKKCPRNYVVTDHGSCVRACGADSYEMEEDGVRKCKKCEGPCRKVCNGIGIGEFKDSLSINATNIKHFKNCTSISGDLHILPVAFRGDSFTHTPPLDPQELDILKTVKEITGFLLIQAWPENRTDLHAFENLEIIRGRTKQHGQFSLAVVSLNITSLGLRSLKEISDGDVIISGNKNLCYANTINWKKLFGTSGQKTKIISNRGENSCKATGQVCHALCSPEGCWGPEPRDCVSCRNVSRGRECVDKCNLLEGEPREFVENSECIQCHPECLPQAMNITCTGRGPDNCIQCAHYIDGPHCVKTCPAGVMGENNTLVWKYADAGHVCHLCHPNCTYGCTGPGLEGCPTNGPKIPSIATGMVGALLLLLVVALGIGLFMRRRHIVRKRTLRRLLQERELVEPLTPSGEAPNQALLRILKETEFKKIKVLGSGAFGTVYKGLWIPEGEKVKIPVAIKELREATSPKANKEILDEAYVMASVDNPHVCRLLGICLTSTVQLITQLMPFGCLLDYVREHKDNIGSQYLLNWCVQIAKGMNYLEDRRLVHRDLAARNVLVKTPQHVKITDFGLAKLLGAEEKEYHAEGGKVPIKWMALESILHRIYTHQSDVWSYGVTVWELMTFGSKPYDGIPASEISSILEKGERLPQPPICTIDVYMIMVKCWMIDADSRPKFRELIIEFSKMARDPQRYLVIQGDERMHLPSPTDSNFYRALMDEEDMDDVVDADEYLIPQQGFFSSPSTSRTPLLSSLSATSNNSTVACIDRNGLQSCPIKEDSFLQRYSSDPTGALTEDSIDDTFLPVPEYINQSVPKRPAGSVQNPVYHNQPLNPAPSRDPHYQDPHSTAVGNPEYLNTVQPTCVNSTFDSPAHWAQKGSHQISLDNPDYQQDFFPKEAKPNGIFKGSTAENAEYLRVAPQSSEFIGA
Description: Inhibition of EGFR in human A431 cells

| SMILES | IC50 |
| --- | --- |
| N#C/C(=C/c1ccc(O)c(O)c1)C(=O)NC1CCCCC1 | 2 µM |
| COc1c(O)cc(O)c2c(=O)c(-c3ccc(O)cc3)coc12 [PSI-TECTORIGENIN] | 0.333 µM |
| N#C/C(=C\c1ccc(O)c(O)c1)C(=O)c1ccccc1Cl | 2 µM |
| O=C(O)c1cc(N(Cc2ccccc2O)Cc2ccccc2O)ccc1O [LAVENDUSTIN B] | 1.37 µM |
| N#CC(C#N)=C(O)c1ccc(O)cc1 | 500 µM |
| O=C(O)/C=C/c1ccc(O)c(O)c1 [CAFFEIC ACID] | 1000 µM |
| N#CC(C#N)=C(O)c1cc(O)c(O)c(O)c1 | 10 µM |
| N#C/C(=C\c1ccc(O)c(O)c1)C(=O)c1ccc(O)c(O)c1 | 0.4 µM |
| O=c1c(O)c(-c2ccc(O)cc2)oc2cc(O)cc(O)c12 [KAEMPFEROL] | 10.5 µM |
| N#CC(C#N)=C(C#N)c1ccc(O)cc1 | 600 µM |
| O=c1c(-c2ccc(O)cc2)coc2cc(O[C@@H]3O[C@H](CO)[C@@H](O)[C@H](O)[C@H]3O)cc(O)c12 [GENISTIN] | > 231 µM |
| N#CC(C#N)=C(C#N)c1cc(O)c(O)c(O)c1 | 3 µM |
| N#C/C(=C/c1ccc(O)c(O)c1)C(=O)Nc1ccccc1Cl | 10 µM |
| N#C/C(=C\c1cc(O)ccc1O)C(=O)O | 20 µM |
| O=c1c(-c2ccc(O)cc2)coc2cc(O)ccc12 [DAIDZEIN] | > 393 µM |
| COc1ccc(-c2cc(=O)c3c(O)cc(O)cc3o2)cc1 [ACACETIN] | 141 µM |
| O=[N+]([O-])/C=C/c1ccc(O)c(O)c1 | 9 µM |
| N#C/C(=C\c1ccc(O)c(O)c1)C(=O)c1ccccc1 | 1 µM |
| N#CC(C#N)=C(N)/C(C#N)=C/c1ccc(O)cc1 | 0.1 µM |
| O=C(O)c1ccc(O)c(N(Cc2ccccc2O)Cc2cc(O)ccc2O)c1 | 0.524 µM |
| O=C(O)c1ccc(O)cc1 [PARABEN] | 72.4 µM |
| O=C(O)c1cc(N(Cc2cc(O)ccc2O)Cc2cc(O)ccc2O)ccc1O | 0.0252 µM |

| SMILES | IC50 |
| --- | --- |
| N#C/C(=C\c1ccc(O)c(O)c1)C(=O)c1ccc(F)cc1 | 0.6 µM |
| N#CC(C#N)=C(C#N)c1cc(O)cc(O)c1 | 10 µM |
| N#CC(C#N)=C(C#N)c1cccc(O)c1 | 400 µM |
| C/C(=C\c1ccc(O)c(O)c1)[N+](=O)[O-] | 9 µM |
| N#C/C(=C/c1ccc(O)c(O)c1)C(=O)NCCCCc1ccccc1 | 0.1 µM |
| O=c1cc(-c2ccc(O)cc2)oc2cc(O)cc(O)c12 [APIGENIN] | 111 µM |
| N#C/C(=C\c1ccc(O)c(O)c1)C(=O)c1ccc([N+](=O)[O-])cc1 | 2 µM |
| N#C/C(=C\c1ccc(O)cc1)C(=O)O [alpha-CYANO-4-HYDROXYCINNAMIC ACID] | 200 µM |
| COc1ccc(-c2coc3cc(O)cc(O)c3c2=O)cc1 [BIOCHANIN] | 106 µM |
| N#C/C(=C\c1ccc(O)c(O)c1)C(=O)NCCc1ccccc1 | 0.9 µM |
| COc1cc(C(C#N)=C(C#N)C#N)cc(O)c1O | 6 µM |
| O=P(O)(O)C(O)c1ccc2ccccc2c1 (stereo not drawn) | 200 µM |
| N#CC(C#N)=C(C#N)c1ccc(O)c(O)c1 | 10 µM |
| N#CC(C#N)=C(C#N)c1ccc(C=O)cc1 | 600 µM |
| O=C(O)c1cc(N(Cc2ccccc2O)Cc2cc(O)ccc2O)ccc1O [LAVENDUSTIN A] | 0.0105 µM |
| COc1cc(O)c2c(=O)c(-c3ccc(O)cc3)coc2c1 [PRUNETIN] | 14.1 µM |
| COc1cc(C(C#N)=C(C#N)C#N)cc(OC)c1O | 900 µM |
| O=c1cc(-c2ccccc2)oc2ccccc12 [FLAVONE] | 225 µM |
| N#CC(C#N)=C(N)/C(C#N)=C/c1ccc(O)c(O)c1 | 3 µM |
| COc1cc(/C=C/[N+](=O)[O-])ccc1O | 8 µM |
| Cc1ccc(C(=O)/C(C#N)=C/c2ccc(O)c(O)c2)cc1 | 0.9 µM |
| N#C/C(=C\c1ccc(O)c(O)c1)C(=O)O | 30 µM |

target: Tyrosine-protein kinase Lck (Homo sapiens, UniProt P06239)
Sequence (P06239 whole entry): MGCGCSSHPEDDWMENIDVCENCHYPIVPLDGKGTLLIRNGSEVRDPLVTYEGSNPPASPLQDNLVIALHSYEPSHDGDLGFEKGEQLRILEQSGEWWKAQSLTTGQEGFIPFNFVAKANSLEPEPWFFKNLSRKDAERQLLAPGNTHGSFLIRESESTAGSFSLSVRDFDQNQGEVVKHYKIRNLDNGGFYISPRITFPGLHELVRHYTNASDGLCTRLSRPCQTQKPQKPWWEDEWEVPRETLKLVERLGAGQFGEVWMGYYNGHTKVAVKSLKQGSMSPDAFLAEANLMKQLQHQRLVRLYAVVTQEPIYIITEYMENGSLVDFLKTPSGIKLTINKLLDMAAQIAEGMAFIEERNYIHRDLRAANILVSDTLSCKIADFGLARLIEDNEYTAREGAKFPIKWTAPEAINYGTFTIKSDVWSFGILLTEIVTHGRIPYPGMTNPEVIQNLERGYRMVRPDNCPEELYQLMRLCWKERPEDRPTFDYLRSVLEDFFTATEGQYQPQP

| SMILES | IC50 |
| --- | --- |
| Cc1cc(O)c2c(c1)C(=O)c1cc(O[C@@H]3O[C@H](CO)[C@@H](O)[C@H](O)[C@H]3O)cc(O)c1C2=O | > 1850 µM |
| COc1cc(-c2cc(=O)c3cc(O)ccc3o2)cc(OC)c1O | 127 µM |
| O=c1cc(-c2ccc(O)c(O)c2)oc2cc(O)cc(O)c12 [LUTEOLIN] | 34.9 µM |
| COc1ccc2c(=O)cc(-c3cc(OC)c(OC)c(OC)c3)oc2c1 | > 2340 µM |
| O=c1c(O)c(-c2ccccc2)oc2cc(O)cc(O)c12 [GALANGIN] | 296 µM |
| O=c1cc(-c2ccccc2)oc2cc(O)ccc12 [7-HYDROXYFLAVONE] | 336 µM |
| COc1ccc(/C=N/Nc2ccccc2)cc1OC | 70 µM |
| O=c1cc(-c2ccccc2)oc2c(O)c(O)ccc12 [7,8-DIHYDROXYFLAVONE] | 315 µM |
| Nc1ccc(-c2cc(=O)c3ccc(O)cc3o2)cc1 | 100 µM |
| O=c1c(O)c(-c2ccc(O)c(O)c2)oc2cc(O)cc(O)c12 [QUERCETIN] | 132 µM |
| COc1cc(-c2cc(=O)c3ccc(O)cc3o2)cc(OC)c1OC | > 2440 µM |
| Nc1ccc(-c2cc(=O)c3cc(O)ccc3o2)cc1 | 1 µM |
| O=c1cc(-c2ccc(O)cc2)oc2cccc(O)c12 | 15.7 µM |
| O=C1c2ccccc2C(=O)c2cc(O)ccc21 [2-HYDROXYANTHRAQUINONE] | 89.2 µM |
| CC(C)(C)[Si](C)(C)Oc1ccc(-c2cc(=O)c3cc(O)ccc3o2)cc1 | 109 µM |
| O=c1cc(-c2ccc(OCc3ccccc3)cc2)oc2cccc(O)c12 | > 2320 µM |
| O=c1cc(-c2cccc(O)c2)oc2cc(O)ccc12 | 39.3 µM |
| COc1cc(-c2cc(=O)c3ccc(O)c(O)c3o2)cc(OC)c1O | 121 µM |
| COc1cc(-c2cc(=O)c3ccc(O)cc3o2)cc(OC)c1O[Si](C)(C)C(C)(C)C | 163 µM |
| COc1cc(-c2cc(=O)c3ccc(OC(C)=O)cc3o2)cc(OC)c1O | > 2250 µM |
| COc1cc(-c2cc(=O)c3ccc(O)cc3o2)cc(OC)c1O | 1270 µM |
| CC(C)(C)[Si](C)(C)Oc1ccc(-c2cc(=O)c3ccc(O)cc3o2)cc1 | 109 µM |
| COc1cc(-c2cc(=O)c3cc(O)ccc3o2)cc(OC)c1OC | 60.9 µM |
| O=c1cc(-c2ccc(OCc3ccccc3)cc2)oc2cc(O)ccc12 | 2030 µM |

| SMILES | IC50 |
| --- | --- |
| O=c1cc(-c2ccc(O)cc2)oc2cc(O)cc(O)c12 [APIGENIN] | 14.8 µM |
| O=c1cc(-c2cccc(O)c2)oc2c(O)c(O)ccc12 | 185 µM |
| O=c1cc(-c2ccc(O)cc2)oc2cc(O)ccc12 | 787 µM |
| COc1cc(-c2cc(=O)c3ccccc3o2)cc(OC)c1O | 26.8 µM |
| COc1cc(-c2cc(=O)c3ccc(OC(C)=O)c(OC(C)=O)c3o2)cc(OC)c1O[Si](C)(C)C(C)(C)C | > 1510 µM |
| Nc1ccc(-c2cc(=O)c3c(O)c(O)ccc3o2)cc1 | 7 µM |
| COc1cc(O)c2c(=O)cc(-c3ccc(O)cc3)oc2c1 [GENKWANIN] | 281 µM |
| O=c1cc(-c2cccc(O)c2)oc2cccc(O)c12 | 315 µM |
| CC(=O)Oc1ccc2c(c1)C(=O)c1ccccc1C2=O | > 3000 µM |
| COc1ccc2oc(-c3cc(OC)c(OC)c(OC)c3)cc(=O)c2c1 | > 2340 µM |
| O=C1c2ccccc2C(=O)c2c(O)cccc21 [1-HYDROXYANTHRAQUINONE] | > 3570 µM |
| COc1cc(-c2cc(=O)c3ccc(O)c(O)c3o2)cc(OC)c1OC | 290 µM |
| COc1ccc(/C=C/c2cccnc2)cc1OC | 200 µM |
| O=c1cc(-c2ccc(O)cc2)oc2ccc(O)cc12 | 11.8 µM |
| COc1cc(-c2cc(=O)c3ccc(OC(C)=O)cc3o2)cc(OC)c1O[Si](C)(C)C(C)(C)C | > 1700 µM |
| COc1cc(O)c2c(c1)C(=O)c1cc(C)cc(O)c1C2=O [PHYSCION] | > 2810 µM |
| O=c1c(O)c(-c2cc(O)cc(O)c2)oc2cc(O)cc(O)c12 | 99.3 µM |
| O=c1cc(-c2cccc(O)c2)oc2ccc(O)cc12 | 157 µM |
| O=c1cc(-c2ccccc2)oc2cc(O)cc(O)c12 [CHRYSIN] | 19.7 µM |
| COc1cc(-c2oc3cc(O)cc(O)c3c(=O)c2O)cc(OC)c1O [SYRINGETIN] | 57.8 µM |
| COc1cc(-c2cc(=O)c3ccc(OC)c(OC)c3o2)cc(OC)c1OC | > 2150 µM |
| COc1cc(-c2cc(=O)c3cc(O)ccc3o2)cc(OC)c1O[Si](C)(C)C(C)(C)C | 467 µM |
| COc1cc(-c2cc(=O)c3ccc(O)c(O)c3o2)cc(OC)c1O[Si](C)(C)C(C)(C)C | > 1800 µM |

target: T1, Epidermal growth factor receptor; remark: another data set of the same source

| SMILES | IC50 |
| --- | --- |
| O=CN/C=C/c1ccc(O)c(O)c1 | 5.58 µM |
| CSCc1cc(/C=C2\C(=O)Nc3ccccc32)cc(CSC)c1O | 0.4 µM |
| O=CN/C=C/c1ccc(O)c(O)c1O | 4.61 µM |
| CCOC(=O)c1oc2cc(O)cc(O)c2c(=O)c1-c1ccc(O)cc1 | 5.84 µM |
| CCOc1cc(/C=C(\C#N)C(N)=O)cc(CSc2ccc(C)cc2)c1O | 20 µM |
| N#C/C(=C\c1cc(CSc2ccccc2)c(O)c(OCc2ccccc2)c1)C(N)=O | 0.8 µM |
| COC(=O)/C=C/c1cc(O)ccc1O | 103 µM |
| CCOc1cc(/C=C2/CCNC2=O)cc(CSc2ccccc2)c1O | 0.9 µM |
| COC(=O)c1oc2cc(O)cc(O)c2c(=O)c1-c1ccc(O)cc1 | 6.09 µM |
| O=CN/C=C/c1ccc(O)cc1O | > 167 µM |
| O=c1c(-c2ccc(O)cc2)c(CSC2=NCCS2)oc2cc(O)cc(O)c12 | 12.5 µM |
| CC(C)c1cc(/C=C2\C(=O)Nc3ccccc32)cc(C(C)C)c1O | 0.4 µM |
| CCOC(=O)C(=O)Oc1ccc(-c2c(C(=O)OCC)oc3cc(O)cc(O)c3c2=O)cc1 | 1 µM |
| Cc1oc2cc(O)cc(O)c2c(=O)c1-c1ccc(O)cc1 | 7.04 µM |
| O=CN/C=C/c1ccccc1O | > 613 µM |
| O=CN/C=C/c1cccc(O)c1 | > 61.3 µM |
| N#C/C(=C\c1cc(-c2ccccc2)c(O)c(-c2ccccc2)c1)C(N)=O | 0.4 µM |
| COc1ccc(O)c(/C=C/NC=O)c1 | > 31.1 µM |
| O=CN/C=C/c1cccc(O)c1O | 1.67 µM |
| CC(C)OC(=O)c1oc2cc(O)cc(O)c2c(=O)c1-c1ccc(O)cc1 | 28.1 µM |
| CCOC(=O)CSCc1oc2cc(O)cc(O)c2c(=O)c1-c1ccc(O)cc1 | 9.94 µM |
| N#CC(C#N)=C1C(=O)Nc2ccc(O)cc21 | 10 µM |
| O=CN/C=C/c1cc(Br)ccc1O | > 24.8 µM |
| NC(=O)c1oc2cc(O)cc(O)c2c(=O)c1-c1ccc(O)cc1 | 31.9 µM |
| O=C(O)c1oc2cc(O)cc(O)c2c(=O)c1-c1ccc(O)cc1 | 6.36 µM |
| CCOc1cc(/C=C(\C#N)C(N)=O)cc(CSc2ccc(O)cc2)c1O | 3 µM |
| COc1cc(/C=C(\C#N)C(N)=O)cc(CSc2ccccc2)c1O | 0.5 µM |

From ChEMBL document CHEMBL1150213, “Protein-tyrosine kinase inhibition: mechanism-based discovery of antitumor agents” (J Nat Prod, 1992)
